# Measurements published in the CheMixHub ionic liquid set.
# Values joined by “and” are separate entries in the source; they are usually repeats but may differ in a detail not shown here. Identical values can stand only once. ± gives the uncertainty stated by the source.
# Test: xn = mol fraction of the nth substance listed
# Conditions: 101.3 kPa
compound,measurement,setting,value
CCCC[N+]1(C)CCCCC1.F[P-](F)(F)(F)(F)F + CCCC[n+]1cccc(C)c1.F[P-](F)(F)(F)(F)F + CCCC[N+]1(C)CCCC1.F[P-](F)(F)(F)(F)F,viscosity,"298.15 K, x2 = 0.4, x1 = 0.24",1666 ± 82 mPa·s and 1686 ± 230 mPa·s
same,viscosity,"298.15 K, x2 = 0.4, x1 = 0.3",1857 ± 94 mPa·s
same,viscosity,"298.15 K, x2 = 0.4, x1 = 0.36",2084 ± 110 mPa·s
same,viscosity,"298.15 K, x2 = 0.4, x1 = 0.42",2332 ± 120 mPa·s
same,viscosity,"298.15 K, x2 = 0.4, x1 = 0.48",2615 ± 140 mPa·s
same,viscosity,"298.15 K, x2 = 0.4, x1 = 0.54",2945 ± 170 mPa·s
same,viscosity,"303.15 K, x2 = 0.4, x1 = 0.06",794 ± 33 mPa·s
same,viscosity,"303.15 K, x2 = 0.4, x1 = 0.12",916 ± 39 mPa·s
same,viscosity,"303.15 K, x2 = 0.4, x1 = 0.18",964 ± 42 mPa·s
same,viscosity,"303.15 K, x2 = 0.4, x1 = 0.24",1130 ± 52 mPa·s and 1143 ± 130 mPa·s
same,viscosity,"303.15 K, x2 = 0.4, x1 = 0.3",1248 ± 59 mPa·s
same,viscosity,"303.15 K, x2 = 0.4, x1 = 0.36",1390 ± 68 mPa·s
same,viscosity,"303.15 K, x2 = 0.4, x1 = 0.42",1544 ± 77 mPa·s
same,viscosity,"303.15 K, x2 = 0.4, x1 = 0.48",1714 ± 87 mPa·s
same,viscosity,"303.15 K, x2 = 0.4, x1 = 0.54",1917 ± 100 mPa·s
same,viscosity,"308.15 K, x2 = 0.3, x1 = 0.28",964 ± 96 mPa·s
same,viscosity,"308.15 K, x2 = 0.4, x1 = 0.06",568 ± 22 mPa·s
same,viscosity,"308.15 K, x2 = 0.4, x1 = 0.12",648 ± 26 mPa·s
same,viscosity,"308.15 K, x2 = 0.4, x1 = 0.18",680 ± 28 mPa·s
same,viscosity,"308.15 K, x2 = 0.4, x1 = 0.24",783 ± 33 mPa·s and 791 ± 72 mPa·s
same,viscosity,"308.15 K, x2 = 0.4, x1 = 0.3",859 ± 37 mPa·s
same,viscosity,"308.15 K, x2 = 0.4, x1 = 0.36",948 ± 42 mPa·s
same,viscosity,"308.15 K, x2 = 0.4, x1 = 0.42",1045 ± 48 mPa·s
same,viscosity,"308.15 K, x2 = 0.4, x1 = 0.48",1152 ± 54 mPa·s
same,viscosity,"308.15 K, x2 = 0.4, x1 = 0.54",1278 ± 61 mPa·s
same,viscosity,"308.15 K, x2 = 0.5, x1 = 0.2",648 ± 54 mPa·s
same,viscosity,"308.15 K, x2 = 0.6, x1 = 0.16",534 ± 40 mPa·s
same,viscosity,"313.15 K, x2 = 0.3, x1 = 0.28",684 ± 57 mPa·s
same,viscosity,"313.15 K, x2 = 0.4, x1 = 0.06",413 ± 15 mPa·s
same,viscosity,"313.15 K, x2 = 0.4, x1 = 0.12",467 ± 17 mPa·s
same,viscosity,"313.15 K, x2 = 0.4, x1 = 0.18",488 ± 18 mPa·s
same,viscosity,"313.15 K, x2 = 0.4, x1 = 0.24",556 ± 21 mPa·s and 561 ± 42 mPa·s
same,viscosity,"313.15 K, x2 = 0.4, x1 = 0.3",606 ± 24 mPa·s
same,viscosity,"313.15 K, x2 = 0.4, x1 = 0.36",664 ± 27 mPa·s
same,viscosity,"313.15 K, x2 = 0.4, x1 = 0.42",727 ± 30 mPa·s
same,viscosity,"313.15 K, x2 = 0.4, x1 = 0.48",795 ± 34 mPa·s
same,viscosity,"313.15 K, x2 = 0.4, x1 = 0.54",875 ± 38 mPa·s
same,viscosity,"313.15 K, x2 = 0.5, x1 = 0.2",465 ± 32 mPa·s
same,viscosity,"313.15 K, x2 = 0.6, x1 = 0.16",385 ± 24 mPa·s
same,viscosity,"313.15 K, x2 = 0.7, x1 = 0.12",325 ± 19 mPa·s
same,viscosity,"318.15 K, x2 = 0.2, x1 = 0.32",596 ± 45 mPa·s
same,viscosity,"318.15 K, x2 = 0.3, x1 = 0.28",495 ± 35 mPa·s
same,viscosity,"318.15 K, x2 = 0.4, x1 = 0.06",306 ± 10 mPa·s
same,viscosity,"318.15 K, x2 = 0.4, x1 = 0.12",344 ± 12 mPa·s
same,viscosity,"318.15 K, x2 = 0.4, x1 = 0.18",358 ± 12 mPa·s
same,viscosity,"318.15 K, x2 = 0.4, x1 = 0.24",404 ± 14 mPa·s and 407 ± 26 mPa·s
same,viscosity,"318.15 K, x2 = 0.4, x1 = 0.3",437 ± 16 mPa·s
same,viscosity,"318.15 K, x2 = 0.4, x1 = 0.36",476 ± 18 mPa·s
same,viscosity,"318.15 K, x2 = 0.4, x1 = 0.42",518 ± 20 mPa·s
same,viscosity,"318.15 K, x2 = 0.4, x1 = 0.48",563 ± 22 mPa·s
same,viscosity,"318.15 K, x2 = 0.4, x1 = 0.54",615 ± 24 mPa·s
same,viscosity,"318.15 K, x2 = 0.5, x1 = 0.2",340 ± 20 mPa·s
same,viscosity,"318.15 K, x2 = 0.6, x1 = 0.16",284 ± 15 mPa·s
same,viscosity,"318.15 K, x2 = 0.7, x1 = 0.12",241 ± 12 mPa·s
same,viscosity,"318.15 K, x2 = 0.8, x1 = 0.08",206 ± 9 mPa·s
same,viscosity,"323.15 K, x2 = 0.2, x1 = 0.32",439 ± 28 mPa·s
same,viscosity,"323.15 K, x2 = 0.3, x1 = 0.28",365 ± 22 mPa·s
same,viscosity,"323.15 K, x2 = 0.4, x1 = 0.06",232 ± 7 mPa·s
same,viscosity,"323.15 K, x2 = 0.4, x1 = 0.12",258 ± 8 mPa·s
same,viscosity,"323.15 K, x2 = 0.4, x1 = 0.18",268 ± 8 mPa·s
same,viscosity,"323.15 K, x2 = 0.4, x1 = 0.24",300 ± 10 mPa·s and 302 ± 16 mPa·s
same,viscosity,"323.15 K, x2 = 0.4, x1 = 0.3",323 ± 11 mPa·s
same,viscosity,"323.15 K, x2 = 0.4, x1 = 0.36",349 ± 12 mPa·s
same,viscosity,"323.15 K, x2 = 0.4, x1 = 0.42",378 ± 13 mPa·s
same,viscosity,"323.15 K, x2 = 0.4, x1 = 0.48",408 ± 14 mPa·s
same,viscosity,"323.15 K, x2 = 0.4, x1 = 0.54",444 ± 16 mPa·s
same,viscosity,"323.15 K, x2 = 0.5, x1 = 0.2",253 ± 12 mPa·s
same,viscosity,"323.15 K, x2 = 0.6, x1 = 0.16",213 ± 9 mPa·s
same,viscosity,"323.15 K, x2 = 0.7, x1 = 0.12",182 ± 7 mPa·s
same,viscosity,"323.15 K, x2 = 0.8, x1 = 0.08",157 ± 6 mPa·s
same,viscosity,"323.15 K, x2 = 0.9, x1 = 0.04",136 ± 5 mPa·s
same,viscosity,"328.15 K, x2 = 0.2, x1 = 0.32",329 ± 18 mPa·s
same,viscosity,"328.15 K, x2 = 0.3, x1 = 0.28",274 ± 14 mPa·s
same,viscosity,"328.15 K, x2 = 0.4, x1 = 0.06",178 ± 5 mPa·s
same,viscosity,"328.15 K, x2 = 0.4, x1 = 0.12",197 ± 6 mPa·s
same,viscosity,"328.15 K, x2 = 0.4, x1 = 0.18",204 ± 6 mPa·s
same,viscosity,"328.15 K, x2 = 0.4, x1 = 0.24",227 ± 7 mPa·s and 229 ± 10 mPa·s
same,viscosity,"328.15 K, x2 = 0.4, x1 = 0.3",243 ± 7 mPa·s
same,viscosity,"328.15 K, x2 = 0.4, x1 = 0.36",261 ± 8 mPa·s
same,viscosity,"328.15 K, x2 = 0.4, x1 = 0.42",281 ± 9 mPa·s
same,viscosity,"328.15 K, x2 = 0.4, x1 = 0.48",302 ± 10 mPa·s
same,viscosity,"328.15 K, x2 = 0.4, x1 = 0.54",327 ± 11 mPa·s
same,viscosity,"328.15 K, x2 = 0.5, x1 = 0.2",192 ± 8 mPa·s
same,viscosity,"328.15 K, x2 = 0.6, x1 = 0.16",163 ± 6 mPa·s
same,viscosity,"328.15 K, x2 = 0.7, x1 = 0.12",140 ± 5 mPa·s
same,viscosity,"328.15 K, x2 = 0.8, x1 = 0.08",121 ± 4 mPa·s
same,viscosity,"328.15 K, x2 = 0.9, x1 = 0.04",106 ± 3 mPa·s
same,viscosity,"333.15 K, x2 = 0.2, x1 = 0.32",250 ± 12 mPa·s
same,viscosity,"333.15 K, x2 = 0.3, x1 = 0.28",210 ± 9 mPa·s
same,viscosity,"333.15 K, x2 = 0.4, x1 = 0.06",139 ± 4 mPa·s
same,viscosity,"333.15 K, x2 = 0.4, x1 = 0.12",153 ± 4 mPa·s
same,viscosity,"333.15 K, x2 = 0.4, x1 = 0.18",158 ± 4 mPa·s
same,viscosity,"333.15 K, x2 = 0.4, x1 = 0.24",175 ± 5 mPa·s and 176 ± 7 mPa·s
same,viscosity,"333.15 K, x2 = 0.4, x1 = 0.3",186 ± 5 mPa·s
same,viscosity,"333.15 K, x2 = 0.4, x1 = 0.36",199 ± 6 mPa·s
same,viscosity,"333.15 K, x2 = 0.4, x1 = 0.42",214 ± 6 mPa·s
same,viscosity,"333.15 K, x2 = 0.4, x1 = 0.48",228 ± 7 mPa·s
same,viscosity,"333.15 K, x2 = 0.4, x1 = 0.54",246 ± 8 mPa·s
same,viscosity,"333.15 K, x2 = 0.5, x1 = 0.2",149 ± 5 mPa·s
